Measured values reported in PubChem BioAssay (NCI).
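Step 1: Grow cells in 96-well plates. Step 2: Expose to compound for 48 hours at 5 concentrations. Step 3: Interpolate endpoints linearly; if unreached, use highest concentration. TGI: total growth inhibition.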

Legend:
Experiment in all cases: NCI anticancer screen, dose series, 48 h
MDA-N = tested on: MDA-N
OVCAR-3 ovarian = tested on: OVCAR-3 ovarian
HL-60(TB) leukemia = tested on: HL-60(TB) leukemia
TK-10 renal = tested on: TK-10 renal
SK-MEL-2 melanoma = tested on: SK-MEL-2 melanoma
MALME-3M melanoma = tested on: MALME-3M melanoma
COLO 205 colon = tested on: COLO 205 colon
CCRF-CEM leukemia = tested on: CCRF-CEM leukemia
A549 NSCLC = tested on: A549 NSCLC
HCT-116 colon = tested on: HCT-116 colon
K-562 leukemia = tested on: K-562 leukemia
SF-268 CNS = tested on: SF-268 CNS
SNB-75 CNS = tested on: SNB-75 CNS
NCI/ADR-RES ovarian = tested on: NCI/ADR-RES ovarian
NCI-H23 lung = tested on: NCI-H23 lung
NCI-H226 lung = tested on: NCI-H226 lung
UO-31 renal = tested on: UO-31 renal
HCC-2998 colon = tested on: HCC-2998 colon
HOP-62 NSCLC = tested on: HOP-62 NSCLC
HCT-15 colon = tested on: HCT-15 colon
SW-620 colon = tested on: SW-620 colon
ACHN renal = tested on: ACHN renal
UACC-62 melanoma = tested on: UACC-62 melanoma
A498 renal = tested on: A498 renal
SR leukemia = tested on: SR leukemia
SK-MEL-5 melanoma = tested on: SK-MEL-5 melanoma
OVCAR-4 ovarian = tested on: OVCAR-4 ovarian
SF-539 CNS = tested on: SF-539 CNS
RPMI-8226 leukemia = tested on: RPMI-8226 leukemia
DU-145 prostate = tested on: DU-145 prostate
HT29 colon = tested on: HT29 colon
OVCAR-5 ovarian = tested on: OVCAR-5 ovarian
MDA-MB-231 breast = tested on: MDA-MB-231 breast
NCI-H522 lung = tested on: NCI-H522 lung
MDA-MB-435 = tested on: MDA-MB-435
NCI-H460 lung = tested on: NCI-H460 lung
OVCAR-8 ovarian = tested on: OVCAR-8 ovarian
U251 CNS = tested on: U251 CNS
PC-3 prostate = tested on: PC-3 prostate
EKVX NSCLC = tested on: EKVX NSCLC
M14 melanoma = tested on: M14 melanoma
LOX IMVI melanoma = tested on: LOX IMVI melanoma
HOP-92 NSCLC = tested on: HOP-92 NSCLC
UACC-257 melanoma = tested on: UACC-257 melanoma
SNB-19 CNS = tested on: SNB-19 CNS
SF-295 CNS = tested on: SF-295 CNS
T-47D breast = tested on: T-47D breast
786-0 renal = tested on: 786-0 renal
MOLT-4 leukemia = tested on: MOLT-4 leukemia
IGROV1 ovarian = tested on: IGROV1 ovarian
MCF7 breast = tested on: MCF7 breast
SK-OV-3 ovarian = tested on: SK-OV-3 ovarian
KM12 colon = tested on: KM12 colon
RXF 393 renal = tested on: RXF 393 renal
SN12C renal = tested on: SN12C renal
SK-MEL-28 melanoma = tested on: SK-MEL-28 melanoma

c1ccc2c3nnc(c2c1)SCCCSc1nnc(c2ccccc12)SCCCS3
TGI (MDA-N): > 100 µM
TGI (OVCAR-3 ovarian): > 100 µM
TGI (HL-60(TB) leukemia): > 100 µM
TGI (TK-10 renal): > 100 µM
TGI (SK-MEL-2 melanoma): > 100 µM
TGI (MALME-3M melanoma): 72.1 µM
TGI (COLO 205 colon): > 100 µM
TGI (CCRF-CEM leukemia): > 100 µM
TGI (A549 NSCLC): > 100 µM
TGI (HCT-116 colon): > 100 µM
TGI (K-562 leukemia): > 100 µM
TGI (SF-268 CNS): > 100 µM
TGI (SNB-75 CNS): 50.3 µM
TGI (NCI/ADR-RES ovarian): 86.4 µM
TGI (NCI-H23 lung): > 100 µM
TGI (NCI-H226 lung): 56.6 µM
TGI (UO-31 renal): > 100 µM
TGI (HCC-2998 colon): > 100 µM
TGI (HOP-62 NSCLC): 52.8 µM
TGI (HCT-15 colon): > 100 µM
TGI (SW-620 colon): > 100 µM
TGI (ACHN renal): > 100 µM
TGI (UACC-62 melanoma): 88.8 µM
TGI (A498 renal): > 100 µM
TGI (SR leukemia): > 100 µM
TGI (SK-MEL-5 melanoma): 72.2 µM
TGI (OVCAR-4 ovarian): 54.3 µM
TGI (SF-539 CNS): 28.3 µM
TGI (RPMI-8226 leukemia): > 100 µM
TGI (DU-145 prostate): > 100 µM
TGI (HT29 colon): > 100 µM
TGI (OVCAR-5 ovarian): > 100 µM
TGI (MDA-MB-231 breast): 48.6 µM
TGI (NCI-H522 lung): > 100 µM
TGI (MDA-MB-435): > 100 µM
TGI (NCI-H460 lung): > 100 µM
TGI (OVCAR-8 ovarian): > 100 µM
TGI (U251 CNS): > 100 µM
TGI (PC-3 prostate): > 100 µM
TGI (EKVX NSCLC): > 100 µM
TGI (M14 melanoma): > 100 µM
TGI (LOX IMVI melanoma): > 100 µM
TGI (HOP-92 NSCLC): 94.3 µM
TGI (UACC-257 melanoma): > 100 µM
TGI (SNB-19 CNS): > 100 µM
TGI (SF-295 CNS): > 100 µM
TGI (T-47D breast): > 100 µM
TGI (786-0 renal): > 100 µM
TGI (MOLT-4 leukemia): > 100 µM
TGI (IGROV1 ovarian): > 100 µM
TGI (MCF7 breast): > 100 µM
TGI (SK-OV-3 ovarian): > 100 µM
TGI (KM12 colon): > 100 µM
TGI (RXF 393 renal): 94 µM
TGI (SN12C renal): > 100 µM
TGI (SK-MEL-28 melanoma): > 100 µM
